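All cell lines were grown in 96-well plates and treated with compound for 48 hours. Here, GI50 denotes the concentration required for 50% inhibition of growth.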 Active and inactive are the calls of the source. Cut-off read from the data, not from the text of the source: active = GI50 up to about 1.1 µM and inactive = higher.

Test systems include RXF 393; BT-549; UO-31; NCI/ADR-RES; T47D; Hs-578T; ACHN; HCT-116; CCRF-CEM; DU-145; MCF7; PC-3; K562; HCC 2998; UACC-257; SF-539; CAKI-1; HCT-15; HOP-92; A498.
Holding throughout (assay): inhibition of tumour cell growth, NCI panel, 48 h

As for `COc1cc(/C=C/C=C2\CC(C)C/C(=C\C=C\c3ccc(O)c(OC)c3)C2=O)ccc1O` (centres undefined), the GI50 was 4.55 µM (inactive) with RXF 393; 8.61 µM (inactive) in the assay on BT-549; 5.06 µM (inactive) with UO-31; 25.1 µM (inactive) in the assay on NCI/ADR-RES; 7.48 µM (inactive) in the assay with T47D; 10 µM (inactive) in the assay with Hs-578T. Moreover, the GI50 with ACHN is 4.98 µM (inactive); with HCT-116 it was 15 µM (inactive); in the assay with CCRF-CEM it was 1.14 µM (inactive); in the assay with DU-145, 19.5 µM (inactive); in the assay with MCF7, 5.6 µM (inactive); in the assay on PC-3, 11.3 µM (inactive). Further, the GI50 was 3.93 µM (inactive) with K562; 17.5 µM (inactive) in the assay with HCC 2998; 20.2 µM (inactive) in the assay with UACC-257; 22.1 µM (inactive) with SF-539; 12.1 µM (inactive) in the assay on CAKI-1; 25.1 µM in the assay on HCT-15. In addition, in the assay with HOP-92, the GI50 was 7.23 µM (inactive).

Regarding `COc1ccc(C(=O)N2CCN(c3ccc4c(c3)OCC(=O)N4)CC2)cc1`, the GI50 with BT-549, with UO-31, with NCI/ADR-RES, with T47D, with Hs-578T and in the assay with ACHN was > 100 µM (inactive) throughout. Further, the GI50 in the assay with HCT-116, in the assay on CCRF-CEM, in the assay with DU-145, with MCF7, in the assay on PC-3 and in the assay on HCC 2998 was > 100 µM (inactive) each time. The GI50 with UACC-257 was > 100 µM (inactive); with SF-539, > 100 µM (inactive); in the assay with CAKI-1, > 100 µM (inactive); in the assay with HCT-15 it was above 100 µM; in the assay on HOP-92, > 100 µM (inactive).

As for `CC1(C)OC(C(C)(C)O)C(C(C)(C)O)O1` (centres undefined), the GI50 is 39 µM (inactive) with RXF 393; > 100 µM (inactive) in the assay with BT-549; > 100 µM (inactive) with UO-31; > 100 µM (inactive) with NCI/ADR-RES; > 100 µM (inactive) in the assay with T47D; > 100 µM (inactive) in the assay on Hs-578T. The GI50 with ACHN, with HCT-116, in the assay with CCRF-CEM, in the assay on DU-145, in the assay on MCF7 and with PC-3 was > 100 µM (inactive) throughout. For the same molecule, the GI50 is > 100 µM (inactive) in the assay on K562; > 100 µM (inactive) with HCC 2998; > 100 µM (inactive) in the assay with UACC-257; > 100 µM (inactive) in the assay on SF-539; > 100 µM (inactive) in the assay with CAKI-1; above 100 µM in the assay on HCT-15.

In the case of `COC(=O)c1cc2c(o1)Sc1ccccc1NC2=O`, the GI50 was > 100 µM (inactive) in the assay with BT-549; > 100 µM (inactive) in the assay on NCI/ADR-RES; > 100 µM (inactive) in the assay on T47D; 27.7 µM (inactive) in the assay with Hs-578T; 27.1 µM (inactive) in the assay with ACHN; > 100 µM (inactive) in the assay on HCT-116. Besides, the GI50 with CCRF-CEM, in the assay with DU-145, with MCF7, in the assay on PC-3, in the assay on K562 and with HCC 2998 was > 100 µM (inactive) each time. Also, the GI50 is > 100 µM (inactive) with UACC-257; 29 µM (inactive) in the assay with SF-539; > 100 µM (inactive) in the assay on A498; > 100 µM (inactive) in the assay with CAKI-1; above 100 µM with HCT-15; > 100 µM (inactive) in the assay with HOP-92.

In the case of `Cc1cnc2c(c1)C(=O)N(c1ccc([N+](=O)[O-])cc1)S2(=O)=O`, the GI50 was 36.1 µM (inactive) in the assay with BT-549; > 100 µM (inactive) in the assay with UO-31; 74.3 µM (inactive) in the assay on NCI/ADR-RES; > 100 µM (inactive) with T47D; 38.1 µM (inactive) in the assay on Hs-578T; > 100 µM (inactive) with ACHN. Further, the GI50 with HCT-116 is > 100 µM (inactive); in the assay on CCRF-CEM it was 82.4 µM (inactive); in the assay on DU-145, > 100 µM (inactive); in the assay with MCF7, > 100 µM (inactive); in the assay on PC-3 it was 67.3 µM (inactive); in the assay on HCC 2998, > 100 µM (inactive). The GI50 in the assay on UACC-257 is > 100 µM (inactive); in the assay on SF-539, 64.6 µM (inactive); in the assay with A498 it was 68.4 µM (inactive); in the assay with CAKI-1, > 100 µM (inactive); in the assay with HCT-15, 66.1 µM; in the assay on HOP-92 it was > 100 µM (inactive).

Consider `C[n+]1cn(C2=C([N-]S(=O)(=O)c3ccccc3)C(=O)c3ccccc3C2=O)c2ccccc21`, for which the GI50 was 20.3 µM (inactive) in the assay with RXF 393; 20.9 µM (inactive) with BT-549; > 100 µM (inactive) with UO-31; > 100 µM (inactive) with NCI/ADR-RES; 34.1 µM (inactive) with T47D; 41.9 µM (inactive) in the assay on Hs-578T. Also, the GI50 in the assay with ACHN is > 100 µM (inactive); in the assay with HCT-116, 22.9 µM (inactive); with CCRF-CEM it was 39.6 µM (inactive); in the assay on DU-145, 52.7 µM (inactive); with MCF7 it was 22.1 µM (inactive); with PC-3, 27.9 µM (inactive). Also, the GI50 in the assay on K562 was 29.9 µM (inactive); with HCC 2998, 18.9 µM (inactive); in the assay with UACC-257, 19.4 µM (inactive); with SF-539, 31.4 µM (inactive); in the assay with CAKI-1, > 100 µM (inactive); in the assay with HCT-15, above 100 µM. Also, in the assay with HOP-92, the GI50 is 42.1 µM (inactive).

On to `CC(=O)Nc1sccc1S(=O)(=O)c1ccc(Cl)cc1`, for which the GI50 in the assay with RXF 393, in the assay with BT-549, with UO-31, in the assay on NCI/ADR-RES, in the assay on T47D and in the assay with Hs-578T was > 100 µM (inactive) throughout. Also, the GI50 with ACHN, in the assay on HCT-116, with CCRF-CEM, with DU-145, with MCF7 and in the assay with PC-3 was > 100 µM (inactive) in each case. The GI50 in the assay on K562 is > 100 µM (inactive); with HCC 2998, > 100 µM (inactive); in the assay on UACC-257, > 100 µM (inactive); with SF-539, > 100 µM (inactive); with CAKI-1, > 100 µM (inactive); in the assay with HCT-15, above 100 µM. For the same molecule, in the assay on HOP-92, the GI50 is > 100 µM (inactive).

Turning to `C[C@@H]1C(=O)C[C@H]2C(C)(C)CCC[C@]2(C)[C@@]1(O)CCc1ccoc1`, the GI50 in the assay on RXF 393 is > 100 µM (inactive); in the assay with BT-549 it was > 100 µM (inactive); with UO-31, 55.1 µM (inactive); in the assay with T47D, 82 µM (inactive); with Hs-578T, 89.5 µM (inactive); in the assay on ACHN it was > 100 µM (inactive). Moreover, the GI50 in the assay with HCT-116, in the assay on CCRF-CEM, with DU-145, with MCF7, in the assay on PC-3 and with K562 was > 100 µM (inactive) each time. Moreover, the GI50 was > 100 µM (inactive) with HCC 2998; > 100 µM (inactive) in the assay on UACC-257; > 100 µM (inactive) in the assay with SF-539; > 100 µM (inactive) with A498; > 100 µM (inactive) in the assay with CAKI-1; above 100 µM in the assay on HCT-15. Besides, the GI50 in the assay with HOP-92 was > 100 µM (inactive).

As to `CCOC(=O)C(NNS(=O)(=O)c1ccc(C)cc1)S(=O)(=O)C(F)(F)C(F)(F)C(F)(F)C(F)(F)F` (centres undefined), the GI50 in the assay on BT-549 is > 100 µM (inactive); in the assay with UO-31, > 100 µM (inactive); in the assay on NCI/ADR-RES it was > 100 µM (inactive); with T47D, > 100 µM (inactive); in the assay on Hs-578T, 97.3 µM (inactive); in the assay with ACHN, > 100 µM (inactive). The GI50 in the assay with HCT-116 was 64 µM (inactive); with CCRF-CEM, > 10 µM (inactive); in the assay on DU-145, > 100 µM (inactive); in the assay with MCF7, > 100 µM (inactive); in the assay with PC-3, > 100 µM (inactive); in the assay on K562, > 100 µM (inactive). In addition, the GI50 in the assay on HCC 2998 is > 100 µM (inactive); with UACC-257 it was > 100 µM (inactive); with SF-539, > 100 µM (inactive); in the assay on A498, > 100 µM (inactive); in the assay on CAKI-1 it was > 100 µM (inactive); in the assay with HCT-15 it was above 100 µM. Moreover, the GI50 with HOP-92 was 54.7 µM (inactive).

For `O=C(CCCN1CCC2(CC1)NC(=O)c1ccccc1O2)c1ccc(F)cc1`, the GI50 is 64.7 µM (inactive) in the assay with RXF 393; 46.6 µM (inactive) in the assay on BT-549; 73.5 µM (inactive) in the assay on UO-31; > 100 µM (inactive) in the assay with NCI/ADR-RES; 84.3 µM (inactive) in the assay on T47D; 96.8 µM (inactive) in the assay with Hs-578T. For the same molecule, the GI50 in the assay with ACHN is > 100 µM (inactive); in the assay with HCT-116, > 100 µM (inactive); in the assay on CCRF-CEM it was 90.4 µM (inactive); with DU-145, > 100 µM (inactive); with MCF7, 94.6 µM (inactive); in the assay on PC-3 it was 73.8 µM (inactive). The GI50 in the assay on K562 is 39.7 µM (inactive); in the assay with HCC 2998 it was > 100 µM (inactive); with UACC-257, 55.5 µM (inactive); with SF-539, > 100 µM (inactive); with CAKI-1, > 100 µM (inactive); with HCT-15 it was above 100 µM. For the same molecule, in the assay on HOP-92, the GI50 was > 100 µM (inactive).

On to `Nc1nccc(-c2c[nH]c3cc(Br)ccc23)n1` [MERIDIANIN D], for which the GI50 in the assay with RXF 393 is 15.5 µM (inactive); in the assay with BT-549, 31.2 µM (inactive); in the assay with UO-31, 18.7 µM (inactive); in the assay on NCI/ADR-RES, 30.8 µM (inactive); with T47D, 30.4 µM (inactive); in the assay with Hs-578T, 25.9 µM (inactive). Moreover, the GI50 is 19.8 µM (inactive) in the assay on ACHN; 18.6 µM (inactive) with HCT-116; 41.1 µM (inactive) in the assay with CCRF-CEM; 34.5 µM (inactive) in the assay on DU-145; 19.9 µM (inactive) in the assay with MCF7; 30.1 µM (inactive) with PC-3. Also, the GI50 is 33.5 µM (inactive) in the assay on K562; 25.1 µM (inactive) in the assay on HCC 2998; 30.2 µM (inactive) in the assay on UACC-257; 32.6 µM (inactive) in the assay with SF-539; 12.6 µM (inactive) in the assay with CAKI-1; 25.1 µM in the assay on HCT-15. Besides, the GI50 in the assay on HOP-92 is 23.7 µM (inactive).

(Values after ChEMBL document CHEMBL1201862, “PubChem BioAssay data set” (2004).)
